For data set [1] the following is noted: cited from earlier work.
Data set [2] concerns the target colchicine site of bovine brain tubulin. The class given is binding. The following applies: for Kd: tubulin binding constant, 25 °C, read-out: Kd. On the procedure:
Inhibition of this fluorescence increase was measured and converted to K d for the test compound as described.

Data set [3] has as its system bovine brain tubulin. Nature of the data set: Tubulin polymerization inhibition. As to conditions: 10 μM tubulin; for Polymerization Inhibition (%) 3.3 μM: 3.3 μM compound; for Polymerization Inhibition (%) 33 μM: 33 μM compound. The class given is biochemical. The protocol: Inhibition of tubulin polymerization was determined as described previously. In brief, 10 μM bovine brain tubulin (PurSolutions, LLC (puresoluble.com)) was incubated under conditions strongly promoting polymerization of tubulin (1 M NaGlutamate, 0.1 M Mes (Morpholinoethanesulfonic acid), 1 mM MgCl2, 0.5 mM GTP, pH 6.9), in the absence or presence of 3.3 or 33 μM test compound, incubated for 30 min at 37 °C, then centrifuged at 100,000g for 8 min, and the top 3/4 of the supernatant removed. Protein concentration was measured, and polymerization was determined as pelletable protein lost from the supernatant.

Data set [4] has as its system M14. The data set can be described thus: Cell-growth inhibition (CellTiter). Format: cell-based, human. The following applies: Homo sapiens, M14, 72 h, read-out: Cell Growth Inhibition GI50 ± SE. On the procedure: (§1) Inhibition of cell growth was determined by using standard procedures. Cell lines were obtained from the NCI anticancer drug screen and maintained in DMEM medium supplemented with 10% fetal bovine serum. Growing cells were exposed to serial dilutions of each compound for 3 days. Cell growth was determined with CellTiter Assay Reagent (Promega), and growth parameters, including inhibition of growth, were measured by using the methods specified by the manufacturer.

The subject of data set [5] is A549. The data set can be described thus: Cell-growth inhibition (CellTiter). Format: cell-based, human. As to conditions: Homo sapiens, A549, 72 h, read-out: Cell Growth Inhibition GI50 ± SE. On the procedure: as §1
In data set [6] the test system is PC3. Nature of the data set: Cell-growth inhibition (CellTiter). Format: cell-based, human. As to conditions: Homo sapiens, PC-3, 72 h, read-out: Cell Growth Inhibition GI50 ± SE. On the procedure: as §1
Data set [7] in a line: Experimental rotational energy barrier (thermal racemization, chiral HPLC). The class given is physicochemical. The protocol:
(aR)-6 and (aS)-6 were readily separable from one another and racemic iso -6 through the use of a polysaccharide-based chiral column (Diacel IA column) fitted to an automated medium-pressure liquid chromatography unit (Biotage Isolera Prime). Racemization was observable after heating a solution of either enantiopure (aR)- or (aS)-6 at 135 °C in xylenes over a few hours, and the rate of enantiomerization was extrapolated using the Eyring equation (ΔG ^‡ = 31.2 ± 0.3 kcal/mol). (aR)- and (aS )-iso-6 were separable in an analogous fashion using a chiral IC polysaccharide column. […] Thus, we can project that the rotational energy barrier is […] 37 kcal/mol. However, a computationally determined rotational barrier for iso -6 was 33.5 kcal/mol, which is roughly 3 kcal/mol more than that calculated for 6. One potential explanation for this notable difference in configurational stability is the greater double bond character of the methyl-bearing C^4–C^5 carbon of iso -6 in comparison to the C^5–C^6 in 6, as this would both shorten and rigidify this steric-bearing bond (see Scheme A/B for details). […] Studies have previously described differences in rotational barriers of DAAC (2) and its analogous isomer that, while less dramatic, are consistent with this trend (ΔG ^‡ = 22.1 vs 23.4 kcal/mol). […]
IV. Experimental Profiling of Dihedral Angles
Rotational Energy Barrier Determination. A small spatula tip (~0.2 mg) of either (aR)-6 (aka, (aR)-MT-MTC) or (aS)-6 (aka, (aS)-MT-MTC) was diluted in 2 mL o-xylenes in a large vial containing a stir bar. The solution was heated to 135 °C open to air (temperature set to 135 °C, but fluxuated between 134 and 138 °C).
~100 µL aliquots were extracted from solution using a syringe fitted with a long disposable needle at various time intervals and diluted into automated sample vials containing 500 µL CH2Cl2 to rapidly cool. These samples were monitored on Agilent with an analytical HPLC IA column, using 0 – 40% iPrOH in Hexanes gradient over 30 minutes at a flow rate of 0.5 mL/min, and a pressure of roughly 5 bar). Samples eluted approximately 20 minutes into run, with (aR)-6 eluting first, followed by (aS)-6. Three separate runs were carried out, two of which monitored racemization of (aS)-6, and one of which monitored racemization of (aR)- […]
Integration of the HPLC traces were used to determine enantiomeric excess by calculating the difference between the two enantiomers and dividing that by the sum of the two enantiomers, and then multiplying that […]
provided a slope (corresponding to kracemization), and dividing this number […] providing kenantiomerization (or kent in equation below), with units inverse seconds. A summary of data follows (Table S5), and representative chromatograms illustrated in section VI.

Structures are written as SMILES. Like-named read-outs stand apart in the source and are kept apart here.

As for `COc1cc2c(c(OC)c1OC)-c1ccc(OC)c(=O)cc1CCC2` [compound 2, desacetamidocolchicine], the “ΔG‡ exp, rotational barrier” value in data set [1] was 22.1 kcal/mol. Further, the “t1/2 rt of racemization” value in data set [1] (room temperature ref 19) is reported as ~ 0.5 h.

`COc1ccc(-c2ccc(OC)c(=O)cc2)c(OC)c1OC` [compound 3, 2-methoxy-5-(2,3,4-trimethoxyphenyl)-2,4,6-cycloheptatrien-1-one, reference compound]: in data set [2], the equilibrium dissociation constant (Kd) came to 3.2 µM. The “Polymerization Inhibition (%) 3.3 μM” value in data set [3] was 100%. Further, in data set [3], the “Polymerization Inhibition (%) 33 μM” value is 100%. Besides, the concentration for 50% growth inhibition (GI50) is 0.03 ± 0.007 µM in data set [4], 0.03 ± 0.001 µM in data set [5] and 0.03 ± 0.005 µM in data set [6].

On to `COc1ccc(-c2ccc(OC)c(=O)cc2C)c(OC)c1OC` [compound 4, 2-Methoxy-6-methyl-5-(2,3,4-trimethoxyphenyl)cyclohepta-2,4,6-trien-1-one], for which, in data set [2], the “binding constant fold less potent than 3” value is reported as 5–30 fold and the Kd is 20 µM. Further, in data set [3], the “Polymerization Inhibition (%) 3.3 μM” value was found to be 0% and the “Polymerization Inhibition (%) 33 μM” value stood at 100%. In addition, the 50% growth inhibitory concentration (GI50) in data set [4] (M14, 3 days) was 0.25 ± 0.025 µM. Further, in data set [5] (A549, 3 days), the GI50 was 0.3 ± 0.01 µM. In data set [6] (PC3, 3 days), the GI50 turned out to be 0.19 ± 0.06 µM.

For `COc1cc(C)c(-c2ccc(OC)c(=O)cc2)c(OC)c1OC` [compound 5, 2-Methoxy-5-(2,3,4-trimethoxy-6-methylphenyl)cyclohepta-2,4,6-trien-1-one], in data set [2], the “binding constant fold less potent than 3” value was 5–30 fold and the equilibrium dissociation constant (Kd) was 14 µM. Besides, in data set [3], the “Polymerization Inhibition (%) 3.3 μM” value amounted to 0% and the “Polymerization Inhibition (%) 33 μM” value is 100%. The GI50 in data set [4] (M14, 3 days) was determined as 0.3 ± 0.01 µM. For the same compound, in data set [5] (A549, 3 days), the GI50 was 0.3 ± 0.01 µM. Further, the concentration for 50% growth inhibition (GI50) in data set [6] (PC3, 3 days) turned out to be 0.22 ± 0.04 µM.

For the compound `COc1cc(C)c(-c2ccc(OC)c(=O)cc2C)c(OC)c1OC` [compound 6, 2-Methoxy-6-methyl-5-(2,3,4-trimethoxy-6-methylphenyl)cyclohepta-2,4,6-trien-1-one], in data set [7] (135 °C in xylenes, Eyring equation), the “ΔG‡ of enantiomerization, experimental” value amounted to 31.2 ± 0.3 kcal/mol.

With `COc1ccc(-c2ccc(=O)c(OC)cc2C)c(OC)c1OC` [iso-4], the dissociation constant Kd in data set [2] came out at 230 µM. The “Polymerization Inhibition (%) 3.3 μM” value in data set [3] is 0%. For the same compound, the “Polymerization Inhibition (%) 33 μM” value in data set [3] amounted to 0%. For the same compound, the GI50 in data set [4] (M14, 3 days) was above 3 µM; in data set [5] (A549, 3 days), above 3 µM; in data set [6] (PC3, 3 days), above 3 µM.

For `COc1cc(C)c(-c2ccc(=O)c(OC)cc2C)c(OC)c1OC` [iso-6, 2-Methoxy-4-methyl-5-(2,3,4-trimethoxy-6-methylphenyl)cyclohepta-2,4,6-trien-1-one], in data set [7] (145 °C for 10 h), the racemization on heating result was “no racemization was observed”. In addition, the “projected rotational energy barrier” value in data set [7] (from absence of racemization at 145 °C, 10 h) is 37 kcal/mol.

Broadly, the Kd is the concentration at which binding is half-saturated. Usually GI50 stands for the concentration giving 50% growth inhibition.

The values above are taken from publication PMC12150326 (The Journal of Organic Chemistry, 2025).
